According to patent US20240043420A1, “7-AZAINDOLE COMPOUNDS FOR INHIBITION OF BCR-ABL TYROSINE KINASES” (EnLiven Therapeutics, Inc., priority 2020, published 2024):

What was measured:
[1] = molecular target: ABL1 (T315I) (Homo sapiens, UniProt P00519, T315I); test: Luminescence-based ABL kinase assay (ADP-Glo, 300 μM ATP), T315I mutant; type: biochemical
Protocol: (§1) Kinase activity of ABL1 was measured using the ADP-Glo system (Promega), which measures formation of ADP using a luminescence-based method. Compounds were serially diluted in DMSO. 20 nL of compound or DMSO only (high control, HC) were added to a 384-well plate (OptiPlate-384, PerkinElmer) using an Echo550 liquid handler (Labcyte). 15 μL of kinase solution (10 mM MgCl2, 0.01% Brij-35, 2 mM DTT, 0.05% BSA, 1 mM EGTA, 50 mM HEPES pH 7.5, and 3.325 nM ABL1 [Carna Biosciences]) were added to each well of the 384-well plate containing the compounds. No enzyme control wells were included (low control, LC). The plate was incubated at room temperature for 30 minutes. 5 μL of a second solution containing 10 mM MgCl2, 0.01% Brij-35, 2 mM DTT, 0.05% BSA, 1 mM EGTA, 50 mM HEPES pH 7.5, 6 μM Peptide 2 (Perkin Elmer, Cat No 760346), and 1.2 mM ATP were added to each well to start the kinase reaction. The plate was incubated for 90 minutes at room temperature. 20 μL of ADP-Glo reagent (Promega) were then added to each well and the plate was incubated for 40 minutes at room temperature. 40 μL of kinase detection reagent (Promega) was added to each well and the plate was incubated for an additional 45 minutes at room temperature. During this step, ADP was converted to ATP, a substrate for luciferase, to produce luminescence signal. Luminescence was measured on an Envision plate reader (Perkin Elmer). Luminescence signal positively correlates with kinase activity. The percent kinase activity was calculated as follows: percent kinase activity=100×(Lumsample−LumLC)/(LumHC−LumLC). As noted above, DMSO only and no enzyme wells were used as high and low controls, respectively. IC50 values were calculated using the XLFit software.

[2] = molecular target: T1, ABL1 (Homo sapiens, UniProt P00519); test: Luminescence-based ABL kinase assay (ADP-Glo, 300 μM ATP); type: biochemical
T1 construct: purchased Carna Biosciences
Protocol: as §1

[3] = system: K562 cells; test: K562 cell proliferation assay (CellTiter-Glo); type: cell-based; details: Homo sapiens, K562, 72 h, CellTiter-Glo viability, read-out: Cell Line (IC50, nM) K562
Protocol: (§2) K562 and HL60 cells, cultured in Iscove's Modified Dulbecco's Media (IMDM) supplemented with 10% FBS, were harvested at 50-80% confluency and plated at 2,000 cells per well (K562) or 1,500 cells per well (HL60) in 384-well tissue culture plates. A subset of wells contained media only (low control, LC). Compounds were serially diluted in DMSO. 40 nL of compound or DMSO only (high control, HC) were added to each well using an Echo 550 liquid handler (Labcyte). The plates were placed in a 37° C. incubator with 5% CO2 for 72 hours. Cell viability was measured using a CellTiter-Glo luminescent cell viability assay (Promega), which allows for relative quantification of metabolically active cells by luminescence-based measurements of intracellular ATP concentrations. Briefly, plates were removed from the incubator and equilibrated for 15 minutes at room temperature prior to the addition of 40 μL of CellTiter-Glo reagent. Plates were then incubated for 30 minutes at room temperature. Luminescence was measured using an EnSpire plate reader (Perkin Elmer). As noted above, luminescence values from wells with DMSO only or media without cells were used as high and low controls (HC and LC), respectively. Normalized percent viability was calculated as follows: percent viability=100×(Lumsample−LumLC)/(LumHC−LumLC).

[4] = system: HL60 cells; test: HL60 cell proliferation assay (CellTiter-Glo); type: cell-based; details: Homo sapiens, HL-60, 72 h, CellTiter-Glo viability, read-out: Cell Line (IC50, nM) HL60
Protocol: as §2

Row | Structure (SMILES) | IC50 [1] [nM] | IC50 [2] [nM] | IC50 [3] [nM] | IC50 [4] [nM]
1 | O=C(Nc1ccc2c(-c3ccccc3Cl)c[nH]c2n1)C1CC1 [Compound 6, N-[3-(2-chlorophenyl)-1H-pyrrolo[2,3-b]pyridin-6-yl]cyclopropanecarboxamide] | 65.6 | 123 | 452 | > 10000
2 | O=C(Nc1ccc2c(-c3cccc(O)c3)c[nH]c2n1)C1CC1 [Compound 13, N-[3-(3-hydroxyphenyl)-1H-pyrrolo[2,3-b]pyridin-6-yl]cyclopropanecarboxamide] | 9.74 | 96.6 | 202 | 4450
3 | COc1ncccc1-c1c[nH]c2nc(NC(=O)C3CC3)ccc12 [Compound 14, N-[3-(2-methoxypyridin-3-yl)-1H-pyrrolo[2,3-b]pyridin-6-yl]cyclopropanecarboxamide] | 52.8 | 91.2 | 416 | > 10000
4 | COc1cc2cc[nH]c2cc1-c1c[nH]c2nc(NC(=O)C3CC3)ccc12 [Compound 17, N-[3-(5-methoxy-1H-indol-6-yl)-1H-pyrrolo[2,3-b]pyridin-6-yl]cyclopropanecarboxamide] | 28.6 | 55.1 | 229 | > 10000
5 | O=C(Nc1ccc2c(-c3ccc4[nH]cnc4c3)c[nH]c2n1)C1CC1 [Compound 19, N-[3-(1H-1,3-benzodiazol-5-yl)-1H-pyrrolo[2,3-b]pyridin-6-yl]cyclopropanecarboxamide] | 4.57 | 11.2 | 147 | 287
6 | O=C(Nc1ccc2c(-c3ccc4[nH]ncc4c3)c[nH]c2n1)C1CC1 [Compound 21, N-(3-(1H-indazol-5-yl)-1H-pyrrolo[2,3-b]pyridin-6-yl)cyclopropanecarboxamide] | 8.74 | 94.8 | 286 | 1570
7 | Cc1nc2cc(-c3c[nH]c4nc(NC(=O)C5CC5)ccc34)ccc2[nH]1 [Compound 29, N-(3-(2-methyl-1H-benzo[d]imidazol-5-yl)-1H-pyrrolo[2,3-b]pyridin-6-yl)cyclopropanecarboxamide] | 10.5 | 41.8 | 454 | 470
8 | CNc1ncccc1-c1c[nH]c2nc(NC(=O)C3CC3)ccc12 [Compound 37, N-[3-[2-(methylamino)pyridin-3-yl]-1H-pyrrolo[2,3-b]pyridin-6-yl]cyclopropanecarboxamide] | 103 | 46.1 | 231 | > 10000
9 | COc1ccccc1-c1c[nH]c2nc(NC(=O)NCCN3CCOCC3)ccc12 [Compound 43, 3-[3-(2-methoxyphenyl)-1H-pyrrolo[2,3-b]pyridin-6-yl]-1-[2-(morpholin-4-yl)ethyl]urea] | 15.6 | 91.1 | 779 | > 10000
10 | O=C(Nc1ccc2c(-c3cccnc3OC(F)F)c[nH]c2n1)C1CC1 [Compound 48, N-[3-[2-(difluoromethoxy)pyridin-3-yl]-1H-pyrrolo[2,3-b]pyridin-6-yl]cyclopropanecarboxamide] | 244 | 94.9 | 777 | 9210
11 | COc1nc2cn[nH]c2cc1-c1c[nH]c2nc(NC(=O)C3CC3)ccc12 [Compound 60, N-(3-[5-methoxy-1H-pyrazolo[4,3-b]pyridin-6-yl]-1H-pyrrolo[2,3-b]pyridin-6-yl)cyclopropanecarboxamide] | 417 | 218 | 5170 | > 10000
12 | CCOc1ncccc1-c1n[nH]c2nc(NC(=O)[C@@H]3C[C@@H]3F)ccc12 [Compound 64, (1S,2S)—N-[3-(2-ethoxypyridin-3-yl)-1H-pyrazolo[3,4-b]pyridin-6-yl]-2-fluorocyclopropane-1-carboxamide] | 140 | 56.9 | 610 | > 10000
13 | O=C(Nc1ccc2c(-c3ccc4nccn4c3)c[nH]c2n1)[C@@H]1C[C@@H]1F [Compound 71, (1S,2S)-2-fluoro-N-(3-[imidazo[1,2-a]pyridin-6-yl]-1H-pyrrolo[2,3-b]pyridin-6-yl)cyclopropane-1-carboxamide] | 55.2 | 48 | 292 | 334
14 | COc1ccc(F)cc1-c1n[nH]c2nc(NC(=O)NCCN3CCN(C)CC3)ccc12 [Compound 79, 3-[3-(5-fluoro-2-methoxyphenyl)-1H-pyrazolo[3,4-b]pyridin-6-yl]-1-[2-(4-methylpiperazin-1-yl)ethyl]urea] | 108 | 143 | 719 | > 10000

Results, then the compound that gave them:

Row | IC50 [1] [nM] | IC50 [2] [nM] | IC50 [3] [nM] | IC50 [4] [nM] | Structure (SMILES)
15 | 7.17 | 78.9 | 421 | > 10000 | COc1cccc(F)c1-c1c[nH]c2nc(NC(=O)[C@H]3C[C@H]3F)ccc12 [Compound 22, (1R,2R)-2-fluoro-N-[3-(2-fluoro-6-methoxyphenyl)-1H-pyrrolo[2,3-b]pyridin-6-yl]cyclopropane-1-carboxamide]
16 | 2.84 | 7.58 | 62.1 | 385 | O=C(Nc1ccc2c(-c3ccc4[nH]cnc4c3)c[nH]c2n1)[C@@H]1C[C@@H]1F [Compound 28, (1S,2S)—N-[3-(1H-1,3-benzodiazol-5-yl)-1H-pyrrolo[2,3-b]pyridin-6-yl]-2-fluorocyclopropane-1-carboxamide]
17 | 37.7 | 157 | 1140 | > 10000 | CCOc1cccc(F)c1-c1n[nH]c2nc(NC(=O)[C@@H]3C[C@@H]3F)ccc12 [Compound 67, (1S,2S)—N-(3-(2-ethoxy-6-fluorophenyl)-1H-pyrazolo[3,4-b]pyridin-6-yl)-2-fluorocyclopropane-1-carboxamide]
18 | 19.2 | 78.2 | 607 | 3690 | COc1ncccc1-c1c(F)[nH]c2nc(NC(=O)[C@@H]3C[C@@H]3F)ccc12 [Compound 68, (1S,2S)-2-fluoro-N-[2-fluoro-3-(2-methoxypyridin-3-yl)-1H-pyrrolo[2,3-b]pyridin-6-yl]cyclopropane-1-carboxamide]
19 | 27.4 | 27.6 | 162 | > 10000 | O=C(Nc1ccc2c(-c3cccnc3OC3CC3)c[nH]c2n1)[C@@H]1C[C@@H]1F [Compound 69, (1S,2S)—N-[3-(2-cyclopropoxypyridin-3-yl)-1H-pyrrolo[2,3-b]pyridin-6-yl]-2-fluorocyclopropane-1-carboxamide]
20 | 140 | 60.3 | 312 | > 10000 | O=C(Nc1ccc2c(-c3cccnc3OC(F)F)c[nH]c2n1)[C@@H]1C[C@@H]1F [Compound 70, (1S,2S)—N-[3-[2-(difluoromethoxy)pyridin-3-yl]-1H-pyrrolo[2,3-b]pyridin-6-yl]-2-fluorocyclopropane-1-carboxamide]
21 | 162 | 70.2 | 1020 | > 10000 | COc1cc2nccn2cc1-c1c[nH]c2nc(NC(=O)[C@@H]3C[C@@H]3F)ccc12 [Compound 72, (1S,2S)-2-fluoro-N-(3-(7-methoxyimidazo[1,2-a]pyridin-6-yl)-1H-pyrrolo[2,3-b]pyridin-6-yl)cyclopropane-1-carboxamide]
22 | 139 | 17.8 | 94.8 | > 10000 | COc1cccc(OC)c1-c1n[nH]c2nc(NC(=O)[C@@H]3C[C@@H]3F)ccc12 [Compound 78, (1S,2S)—N-(3-(2,6-dimethoxyphenyl)-1H-pyrazolo[3,4-b]pyridin-6-yl)-2-fluorocyclopropane-1-carboxamide]
